Data published in a melting point compilation (Tetko et al.; mined from patent text by program, amines drawn as free bases though some values may be those of a salt).

Work on `COc1cccc(OCCN2CCC(N(C)c3nccc(N(C)C)n3)CC2)c1` yielded a melting point of 105 °C.
With `COc1cn(-c2ccc(I)cc2F)nc(-c2ccnn2-c2ccccc2)c1=O` the melting point was 194 to 196 °C.
Work on `CC(=O)Oc1cc(C(C)C)ccc1C1(OC(C)=O)C(=O)c2cccc([N+](=O)[O-])c2C1=O` (stereo not drawn) yielded a melting point of 94 to 98 °C.
Work on `Cc1cc(C)c(N2c3ccccc3S(=O)(=O)c3ccccc32)c(C)c1` yielded a melting point of 242 to 246 °C.
In the case of `COc1ccc(-c2cnc3cc(OC)c(OC)cc3c2)cn1`, the melting point is reported as 170 to 172 °C.
Molecule `CN(C)S(=O)(=O)N(C)c1cccc2cc(-c3nccs3)[nH]c12` has a melting point of 123 °C.
Work on `N#Cc1c(Nc2cccc(Cl)c2)n[nH]c1N` yielded a melting point of 195 to 200 °C.
Work on `COC(=O)/C=C/n1cnc2ccc(SC)cc2c1=O` yielded a melting point of 170 °C.
`CCCCCCC(N)(c1ccccc1)C(C)(C)O` (stereo not drawn) showed a melting point of 64.5 to 65.5 °C.
For `CS(=O)(=O)n1c2cc(O)c(O)cc2c2cc(O)c(O)cc21`, the melting point was 278 to 280 °C.
`CSc1c(C#N)c(=O)n2ccccc2c1C(C)=O` showed a melting point of 178 °C.
For `COc1ccc(-n2nc(CCC(=O)NCC(=O)O)cc2-c2ccc(Cl)cc2)cc1`, the melting point was 186 to 188 °C.
In the case of `C=C(C)c1ccc(C2=NC(=O)C(C)(C(=C)C)N2)nc1` (stereo not drawn), the melting point is reported as 123 to 125 °C.
In the case of `Cn1cc(C(=O)O)c(=O)c2cc(F)c(F)c(F)c21`, the melting point is reported as 255 to 258 °C.
Work on `Nc1ncnc2c1nnn2C1CCC(O)C1O` (stereo not drawn) yielded a melting point of 244 to 245 °C.
Work on `CN(C)c1ccc(C(c2ccccc2)c2c(C(=O)O)[nH]c3ccccc23)cc1` (stereo not drawn) yielded a melting point of 72 to 78 °C.
With `CCCc1oc(-c2ccccc2)nc1COc1ccc(C=O)cc1` the melting point was 76 to 77 °C.
With `CCS(=O)(=O)N[C@H](C(=O)NCc1ccc(OCC#Cc2ccc(Cl)cc2)c(OC)c1)C(C)C` the melting point was 162 to 163 °C.
`CC(=O)Nc1c(-c2ccccc2)c(=O)[nH]c2cc(Cl)ccc12` showed a melting point of 275 to 277 °C.
`CCOC(=O)/C=C/c1ccc(OCc2nc(C)c(C)nc2C)c(OC)c1` gave a melting point of 112 °C.
Molecule `Cc1nc(=O)[nH]c2cc(Cl)c(NC(N)=O)cc12` has a melting point of over 310 °C.
`N#Cc1ccc2[nH]c(C(N)=O)cc2c1` showed a melting point of over 300 °C.
For `O=Cc1cc(Br)c(Cl)cc1[N+](=O)[O-]`, the melting point was 81 to 82 °C.
`COc1cc(NC(=O)Nc2ccccc2)ccn1` gave a melting point of 127 to 129 °C.
In the case of `CCOC(=O)N1CCc2nc(-c3ccncn3)cc(=O)n2CC1`, the melting point is reported as 144 to 146 °C.
Molecule `CCOCCNC(=O)n1sc(OCC)nc1=O` has a melting point of under 50 °C.
With `CS(=O)(=O)Nc1cnc([N+](=O)[O-])cn1` the melting point was 204 to 207 °C.
Work on `CCCNS(=O)(=O)CCCCl` yielded a melting point of 47.5 to 48 °C.
Molecule `Cc1cc(CN2CCOCC2)cc2c1Cc1c(-c3ccsc3)n[nH]c1-2` has a melting point of 232 to 233 °C.
`CCCCNC(=O)C(=O)Nc1ccc(OC)cc1N` gave a melting point of 180 to 181 °C.
Work on `COC(=O)CCCSc1c(Cc2cccc3ccccc23)sc2c1c(=O)n(C)c(=O)n2CC(C)C` yielded a melting point of 111 to 112 °C.
For `CCCc1cc(Cl)c2oc(-c3ccccc3)c(C)c2c1OC(C)=O`, the melting point was 86 to 87 °C.
`CCN1C(=O)c2sccc2N(C)c2ncccc21` gave a melting point of 119 to 120 °C.
In the case of `CSC1=NC(=O)C(=Cc2nc(C(C)(C)C)c(O)c(C(C)(C)C)n2)S1`, the melting point is reported as 205 to 208 °C.
`Cc1sc(-c2ccccc2)nc1COc1ccc(CO)cc1` gave a melting point of 94 to 95 °C.
With `Cc1[nH]cnc1C(=O)OCc1ccccc1` the melting point was 203 to 205 °C.
For `Nc1cc(-c2nnc(CCc3cccc(F)c3)o2)ccn1`, the melting point was 165 to 166 °C.
With `O=c1[nH]c2ncc(-c3ccc(O)cc3)nc2n1CC1CCCN1` (stereo not drawn) the melting point was 178 to 180 °C.
Molecule `CCn1c(=O)c2c(nc(/C=C/c3cc(O)c4c(c3)OCO4)n2C)n(CC)c1=O` has a melting point of 265 to 268 °C.
With `CCCCn1c(C)nnc1SC(N)=O` the melting point was 112 to 114 °C.
With `COC(=O)c1cc([N+](=O)[O-])c(-c2ccccc2)c([N+](=O)[O-])c1` the melting point was 148 °C.
Work on `CCCC(=O)C=CC(=O)O` yielded a melting point of 100 to 102 °C.
`CC(C)=NOCc1nc2c(N)nc3cc(Br)ccc3c2s1` showed a melting point of 211 to 213 °C.
For `CC(C)(C)C(=O)C(=Cn1ccnc1)Oc1ccc(Cl)cc1`, the melting point was 94 to 95 °C.
`OC(c1ccc(F)cc1)(c1ccc(F)cc1)c1ncc[nH]1` showed a melting point of 198 to 200 °C.
In the case of `CCCOc1ccccc1-c1nc2ncncc2c(=O)[nH]1`, the melting point is reported as 142 to 143 °C.
Molecule `O=C(CO)c1ccccc1F` has a melting point of 51 to 54 °C.
For `BrC(Br)(Br)c1nc2ccccc2s1`, the melting point was 79 to 80 °C.
Work on `Cn1ccnc1COc1nn2c(-c3ccccc3F)nnc2cc1C1CCC1` yielded a melting point of 173 °C.
In the case of `CCCCc1nc(S(=O)(=O)c2ccc(OC)cc2)c(C(=O)O)n1Cc1cc2c(cc1Cl)OCO2`, the melting point is reported as 154 °C.
`CCCCC1(CCCC)CS(=O)(=O)c2ccc(N(C)C)cc2[C@@H](c2ccc(OCc3cccc(CN(CC(=O)O)CC(=O)O)n3)cc2)[C@H]1O` gave a melting point of 153 to 155 °C.
`COc1ccc(C=CC(=O)O)cc1-c1cc2c(cc1OCc1ccccc1)C(C)(C)CCC2(C)C` gave a melting point of 200 to 202 °C.
`CCCCC(=O)Nc1ccc(C(F)(F)F)c(-n2nc(CC)n(Cc3ccc(-c4ccccc4S(=O)(=O)NC(=O)OC(C)(C)C)cc3F)c2=O)c1` showed a melting point of 121 to 123 °C.
`Cc1oc(-c2ccccc2)nc1C(=O)COc1ccc(C#N)cc1` showed a melting point of 202 to 203 °C.
In the case of `CC(C)c1ccccc1Sc1c(O)cc(-c2ccc(-c3cccnc3)cc2)oc1=O`, the melting point is reported as 145 to 147 °C.
With `COc1ccc(Cl)c(Oc2c(Cl)ncnc2NS(=O)(=O)c2ccc(C(C)C)cn2)c1` the melting point was 174 to 175 °C.
`CNC(C)=C(C(C)=O)S(=O)(=O)NC(=O)Nc1nc(C)cc(C)n1` gave a melting point of 192 °C.
With `N#Cc1c(N2CCNCC2)c2cc(Cl)ccc2n(Cc2ccccc2)c1=O` the melting point was 156 °C.
`COc1ccc(CNC(=O)Nc2ccc(CN3C(=O)[C@H]4CCC[C@H]4N(C(=O)CCl)c4ccccc43)cc2)cc1` (relative stereo) showed a melting point of 225 to 226 °C.
In the case of `Cc1ccc(Cl)c(Nc2ccccc2-c2nnc(S(C)=O)s2)c1Cl` (stereo not drawn), the melting point is reported as 158 to 160 °C.
With `CCN1CCCC(NC(=O)c2ccccc2Nc2ccnc3c(C(F)(F)F)cccc23)C1` (stereo not drawn) the melting point was 212 to 213 °C.
Work on `C#CCN(Cc1ccc2nc(C)[nH]c(=O)c2c1)c1ccc(C(=O)NCC(OC(C)=O)c2ccc([N+](=O)[O-])cc2)cc1` (stereo not drawn) yielded a melting point of 198 to 203 °C.
With `Cc1cnc2c3c(nccc13)C(=O)c1ccccc1-2` the melting point was 208 to 210 °C.
Molecule `N#CC(C(=O)c1ccc(Cl)cc1)=C1CCCN1` has a melting point of 156 to 158 °C.
Work on `COc1cc(C(=O)O)ccc1Cc1cn(C)c2ccc(NC(=O)OC3CCCC3)cc12` yielded a melting point of 157 to 158 °C.
Molecule `C[C@]1(CN2CC=C(c3ccccc3)CC2)Cn2cc([N+](=O)[O-])nc2O1` has a melting point of 200 to 201 °C.
`CC1CN(C(=O)NC(CS)Cc2ccccc2)CC(C)O1` (single isomer, unassigned; (+)) gave a melting point of 120 to 122 °C.
Work on `CN(C)C(=O)N(C)Cc1cccc2c1C(=O)N(C1CCC(=O)NC1=O)C2=O` (stereo not drawn) yielded a melting point of 206 to 208 °C.
`CCCCc1ccc2scc(NC(=O)C(=O)OC)c(=O)c2c1` showed a melting point of 192 to 194 °C.
`Cc1nc2ccccn2c(=O)c1CC1CCCCC1` gave a melting point of 112 to 114 °C.
With `O=C1CN(C(=O)N2CCCC2)c2c(F)cccc2N1` the melting point was 126 to 132 °C.
`CCOC(=O)c1cccc(NC(=O)Nc2ccc(-n3nc(C(F)(F)F)cc3C(F)(F)F)cc2)c1` showed a melting point of 211 to 212 °C.
In the case of `COc1ccc(C2=NN(C3CCN(C(=O)CCl)CC3)C(=O)[C@@H]3CC=CC[C@H]23)cc1OC`, the melting point is reported as 104 to 106 °C.
